Measurements: ChEMBL document CHEMBL5352419, “Design, synthesis, and biological evaluation of tetrahydroquinoline amphiphiles as membrane-targeting antimicrobials against pathogenic bacteria and fungi” (Eur J Med Chem, 2022)
Converted amounts (≈) assume the structure as drawn. The source made the active and inactive calls. The calls are words filed in the database; no cut-off is given here.

Legend:
Cell membrane [1] = assay: Disruption of membrane integrity in Escherichia coli ATCC25922 assessed as red fluorescence at 8 times of MIC incubated for 2 hrs under dark condition by SYTO 9 and PI staining based laser confocal microscopy analysis
Staphylococcus aureus [2] = assay: Antimicrobial activity against methicillin-resistant Staphylococcus aureus NCTC10442 assessed as bacterial growth inhibition incubated for 24 hrs in presence of 24.3 ug/mL Mg2+ by Muller Hinton broth based dilution assay; type: functional
Staphylococcus aureus [3] = assay: Induction of drug resistance in Staphylococcus aureus ATCC29213 assessed as change in MIC at sub-inhibitory concentration incubated for 21 to 22 passages; type: functional
Escherichia coli [4] = assay: Antibiofilm activity against Escherichia coli ATCC25922 assessed as inhibition of biofilm formation at 0.39 ug/mL incubated for 24 hrs by crystal violet staining based analysis relative to control; type: functional
Candida albicans [5] = assay: Antimicrobial activity against Candida albicans ATCC10231 assessed as fungal killing at 1 to 8 times of MIC measured upto 24 hrs by time-kill kinetics assay; type: functional, organism-based
[6] = Cytotoxicity against mouse NCTC clone 929 cells assessed as viable cells at 3.125 ug/mL incubated for 24 hrs by CCK-8 assay relative to control; type: toxicity, cell-based; conditions: NCTC clone 929 (L929) cells, at 3.125 µg/mL, read-out: Activity
Escherichia coli [7] = assay: Antimicrobial activity against Escherichia coli ATCC25922 assessed as log reduction in microbial load at 4 times of MIC measured at 1 hr by time-kill kinetics assay; type: functional
[8] = Cytotoxicity against mouse J774.A1 cells assessed as viable cells at 12.5 ug/mL incubated for 24 hrs by CCK-8 assay relative to control; type: toxicity, cell-based; conditions: at 12.5 µg/mL, read-out: Activity
Escherichia coli [9] = assay: Antibiofilm activity against Escherichia coli ATCC25922 assessed as inhibition of biofilm formation at 0.78 ug/mL incubated for 24 hrs by crystal violet staining based analysis relative to control; type: functional
Escherichia coli [10] = assay: Antimicrobial activity against Escherichia coli ATCC25922 assessed as bacterial growth inhibition incubated for 24 hrs in presence of 3220 ug/mL Na+ by Muller Hinton broth based dilution assay; type: functional
Pseudomonas aeruginosa [11] = assay: In vivo antibacterial activity against Pseudomonas aeruginosa ATCC9027 infected in keratitis C57BL/6 mouse model assessed as log reduction in bacterial load at 0.5 % administered topically 4 times per day for 3 days; type: functional; conditions: time 3 day
Candida albicans [12] = assay: Antimicrobial activity against Candida albicans CMCC98001 assessed as fungal growth inhibition incubated for 48 hrs in presence of 175.5 ug/mL K+ by Sabouraud Dextrose broth based dilution assay; type: functional
Cell membrane [13] = assay: Disruption of membrane integrity in Staphylococcus aureus ATCC29213 assessed as increase in fluorescence intensity at 1 to 8 times of MIC measured for 1 hr by SYTOX green dye based fluorescence analysis
Candida albicans [14] = assay: Antimicrobial activity against Candida albicans ATCC10231 assessed as fungal growth inhibition incubated for 48 hrs in presence of 3220 ug/mL Na+ by Sabouraud Dextrose broth based dilution assay; type: functional
Staphylococcus aureus [15] = assay: Antimicrobial activity against methicillin-resistant Staphylococcus aureus N315 assessed as bacterial growth inhibition incubated for 24 hrs by Muller Hinton broth based dilution assay; type: functional
[16] = Cytotoxicity against mouse NCTC clone 929 cells assessed as viable cells at 25 ug/mL incubated for 24 hrs by CCK-8 assay relative to control; type: toxicity, cell-based; conditions: NCTC clone 929 (L929) cells, at 25 µg/mL, read-out: Activity
Cell membrane [17] = assay: Disruption of membrane integrity in Candida albicans ATCC10231 assessed as red fluorescence at 8 times of MIC incubated for 2 hrs under dark condition by SYTO 9 and PI staining based laser confocal microscopy analysis
Cell membrane [18] = assay: Disruption of membrane integrity in Escherichia coli ATCC25922 assessed as increase in fluorescence intensity at 1 to 8 times of MIC measured for 1 hr by SYTOX green dye based fluorescence analysis
Pseudomonas aeruginosa [19] = assay: Antimicrobial activity against Pseudomonas aeruginosa ATCC9027 assessed as bacterial growth inhibition incubated for 24 hrs by Muller Hinton broth based dilution assay; type: functional
Acinetobacter baumannii [20] = assay: Antimicrobial activity against Acinetobacter baumannii ATCC17978 assessed as bacterial growth inhibition incubated for 24 hrs in presence of 175.5 ug/mL K+ by Muller Hinton broth based dilution assay; type: functional
Candida albicans [21] = assay: Antimicrobial activity against Candida albicans CMCC98001 assessed as fungal growth inhibition incubated for 48 hrs in presence of 24.3 ug/mL […] by Sabouraud Dextrose broth based dilution assay; type: functional
Escherichia coli [22] = assay: Disruption of preformed biofilm in Escherichia coli ATCC25922 assessed as residual preformed biofilm at 12.5 ug/mL incubated for 24 hrs by crystal violet staining based analysis relative to control; type: functional; conditions: dose 12.5 µg/ml
Escherichia coli [23] = assay: Disruption of preformed biofilm in Escherichia coli ATCC25922 assessed as residual preformed biofilm at […] ug/mL incubated for 24 hrs by crystal violet staining based analysis relative to control; type: functional; conditions: dose […] microg/ml, 1.56 ug/mL
Acinetobacter baumannii [24] = assay: Antimicrobial activity against Acinetobacter baumannii R2889 assessed as bacterial growth inhibition incubated for 24 hrs by Muller Hinton broth based dilution assay; type: functional
Staphylococcus aureus [25] = assay: Antimicrobial activity against Staphylococcus aureus ATCC29213 assessed as bacterial growth inhibition incubated for 24 hrs by Muller Hinton broth based dilution assay; type: functional
Staphylococcus aureus [26] = assay: Antimicrobial activity against Staphylococcus aureus ATCC29213 assessed as bacterial growth inhibition incubated for 24 hrs in presence of 175.5 ug/mL K+ by Muller Hinton broth based dilution assay; type: functional
Candida albicans [27] = assay: Antimicrobial activity against Candida albicans CMCC98001 assessed as fungal growth inhibition incubated for 48 hrs in presence of 3220 ug/mL Na+ by Sabouraud Dextrose broth based dilution assay; type: functional
Acinetobacter baumannii [28] = assay: Antimicrobial activity against Acinetobacter baumannii ATCC17978 assessed as bacterial growth inhibition incubated for 24 hrs in presence of 3220 ug/mL Na+ by Muller Hinton broth based dilution assay; type: functional
Escherichia coli [29] = assay: Disruption of preformed biofilm in Escherichia coli ATCC25922 assessed as residual preformed biofilm at 6.25 ug/mL incubated for 24 hrs by crystal violet staining based analysis relative to control; type: functional; conditions: dose 6.25 µg/ml
Staphylococcus aureus [30] = assay: Disruption of preformed biofilm in Staphylococcus aureus ATCC29213 assessed as residual preformed biofilm at 3.125 ug/mL incubated for 24 hrs by crystal violet staining based analysis relative to control; type: functional; conditions: dose 3.125 µg/ml
Staphylococcus aureus [31] = assay: Antimicrobial activity against Staphylococcus aureus ATCC29213 assessed as bacterial growth inhibition incubated for 24 hrs in presence of 100 ug/mL Ca2+ by Muller Hinton broth based dilution assay; type: functional
Staphylococcus aureus [32] = assay: Antimicrobial activity against Staphylococcus aureus ATCC29213 assessed as bacterial killing at 1 to 8 times of MIC measured upto 24 hrs by time-kill kinetics assay; type: functional, organism-based
Cell membrane [33] = assay: Induction of outer membrane permeabilization in Escherichia coli ATCC25922 assessed as increase in fluorescence intensity at 1 to 8 times of MIC measured for 1 hrs by NPN uptake assay

Row | Structure (SMILES) | Activity (Cell membrane [1]) | MIC (Staphylococcus aureus [2]) [µg/mL] | Activity (Staphylococcus aureus [3]) | inhibition at 0.39 µg/mL (Escherichia coli [4]) [%] | Activity (Candida albicans [5]) | viability at 24 h, 3.125 ug/mL [6] [%] | log(activity) (Escherichia coli [7]) | viability at 24 h, 12.5 ug/mL [8] [%] | inhibition at 0.78 µg/mL (Escherichia coli [9]) [%] | MIC (Escherichia coli [10]) [µg/mL] | log(activity) (Pseudomonas aeruginosa [11]) | MIC (Candida albicans [12]) [µg/mL] | Activity (Cell membrane [13]) | MIC (Candida albicans [14]) [µg/mL] | MIC (Staphylococcus aureus [15]) [µg/mL] | viability at 24 h, 25 ug/mL [16] [%] | Activity (Cell membrane [17]) | Activity (Cell membrane [18]) | MIC (Pseudomonas aeruginosa [19]) [µg/mL] | MIC (Acinetobacter baumannii [20]) [µg/mL] | also measured
1 | CCCCCCCCCN1CCCc2cc(OCCCCNC(=N)N)ccc21 | Active | 0.78 | inactive | 21.6 | Dose-Dependent Effect | 95.5 | >3 | 91.9 | 49.9 | 1.56 | 3.2 | 0.78 | Dose-Dependent Effect | 1.56 | 0.78 (≈ 2.01 µM) | 72.9 | Active | Dose-Dependent Effect | 6.25 (≈ 16.1 µM) | 3.12 | MIC (Candida albicans [21]): 0.78 µg/mL; Activity (Escherichia coli [22]): 8.81%; Activity (Escherichia coli [23]): 72.32%; MIC (Acinetobacter baumannii [24]): 3.12 µg/mL (≈ 8.04 µM); MIC (Staphylococcus aureus [25]): 1.56 µg/mL (≈ 4.01 µM); MIC (Staphylococcus aureus [26]): 0.78 µg/mL; MIC (Candida albicans [27]): 0.78 µg/mL; MIC (Acinetobacter baumannii [28]): 3.12 µg/mL; Activity (Escherichia coli [29]): 15.34%; Activity (Staphylococcus aureus [30]): 10.76%; MIC (Staphylococcus aureus [31]): 0.78 µg/mL; Activity (Staphylococcus aureus [32]): Dose-Dependent Effect; Activity (Cell membrane [33]): Active
2 | CC(C)=CCN1CCCc2cc(OCCCCCCCCNC(=N)N)ccc21 | Active | 0.78 | inactive | 13.5 | Dose-Dependent Effect | 95.5 | >3 | 90 | 32.2 | 3.12 | 3.4 | 0.78 | Dose-Dependent Effect | 0.78 | 0.78 (≈ 2.02 µM) | 77.9 | Active | Dose-Dependent Effect | 6.25 (≈ 16.2 µM) | 3.12 | MIC (Candida albicans [21]): 0.78 µg/mL; Activity (Escherichia coli [22]): 6.85%; Activity (Escherichia coli [23]): 85.82%; MIC (Acinetobacter baumannii [24]): 3.12 µg/mL (≈ 8.08 µM); MIC (Staphylococcus aureus [25]): 1.56 µg/mL (≈ 4.04 µM); MIC (Staphylococcus aureus [26]): 0.78 µg/mL; MIC (Candida albicans [27]): 0.78 µg/mL; MIC (Acinetobacter baumannii [28]): 3.12 µg/mL; Activity (Escherichia coli [29]): 18.49%; Activity (Staphylococcus aureus [30]): 29.55%; MIC (Staphylococcus aureus [31]): 0.78 µg/mL; Activity (Staphylococcus aureus [32]): Dose-Dependent Effect; Activity (Cell membrane [33]): Active
